Laboratory results as given in patent US20110318393A1, “Substituted Pyrazole Compounds” (MIIKANA THERAPEUTICS, INC., priority 2008, published 2011).

Experiments:
Format in all cases: biochemical
Details in all cases: 40 minutes, room temperature; less than or equal to 100 nM
[1] = target: T1, N-terminal GST-tagged recombinant human Flt3, residues 564-end (Homo sapiens, UniProt P36888); assay: Flt3 kinase inhibition assay (33P-ATP filter assay)
T1 construct: recombinant human Flt3, residues 564-end; GST (N); purchased Upstate USA Inc, Charlottesville, Va
T1 sequence (P36888 564-993 limits assumed): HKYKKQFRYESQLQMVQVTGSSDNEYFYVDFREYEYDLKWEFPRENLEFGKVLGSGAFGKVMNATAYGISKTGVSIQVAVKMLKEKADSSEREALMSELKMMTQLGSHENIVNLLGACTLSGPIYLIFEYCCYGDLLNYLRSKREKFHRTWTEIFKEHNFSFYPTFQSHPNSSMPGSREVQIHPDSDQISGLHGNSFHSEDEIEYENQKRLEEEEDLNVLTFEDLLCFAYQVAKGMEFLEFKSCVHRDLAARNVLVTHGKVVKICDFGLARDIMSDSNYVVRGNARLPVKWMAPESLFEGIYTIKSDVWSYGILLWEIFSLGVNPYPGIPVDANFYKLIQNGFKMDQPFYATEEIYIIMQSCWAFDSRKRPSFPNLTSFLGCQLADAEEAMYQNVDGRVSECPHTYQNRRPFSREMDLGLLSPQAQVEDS
Method: (§1) Compounds were assayed for Flt3 kinase inhibitory activity using N-terminal GST-tagged recombinant human Flt3, residues 564-end (Upstate USA Inc, 706 Forest Street, Charlottesville, Va.). Serial dilutions of compound were assayed in a final reaction volume of 25 μL by incubating a solution of the above Flt3 kinase (5-10 mU), 8 mM MOPS (3-(N-morpholino)propanesulfonic acid) pH 7.0, 0.2 mM EDTA (ethylenediamine tetracetic acid), 50 μM amino acid sequence EAIYAAPFAKKK (Upstate USA Inc, 706 Forest Street, Charlottesville, Va.), and 10 mM magnesium acetate and [γ-^33P-ATP] (specific activity of about 500 cpm/pmol, concentration as required). The reaction was initiated by the addition of the magnesium acetate and [γ-^33P-ATP] mixture. After incubation for 40 minutes at room temperature, the reaction was stopped by the addition of 5 μL of a 3% phosphoric acid solution. A 10 μL aliquote of the reaction was then spotted onto a P30 filtermat (PerkinElmer, Wellesley, Mass.) and washed three times for five minutes in 75 mM phosphoric acid and once in methanol prior to drying and scintillation counting. Inhibition of Flt3 activity was determined by comparison to assays that contained no inhibitor.

[2] = target: T2, N-terminal His6-tagged recombinant human KDR, residues 790-end (Homo sapiens, UniProt P35968); assay: KDR kinase inhibition assay (33P-ATP filter assay)
T2 construct: recombinant human KDR, residues 790-end; His6 (N); purchased Upstate USA Inc, Charlottesville, Va
Method: as §1, with “KDR” for “Flt3”, “His6-tagged” for “GST-tagged”, “KDR,” for “Flt3,”, “790-end” for “564-end”, “0.33 mg/mL myelin basic protein” for “50 μM amino acid sequence EAIYAAPFAKKK”

[3] = target: T3, N-terminal His-tagged human Src (Homo sapiens, UniProt P12931); assay: Src kinase inhibition assay (33P-ATP filter assay)
T3 construct: His (N); purchased Upstate USA Inc, Charlottesville, Va
Method: Compounds were assayed for Src kinase inhibitory activity using N-terminal His-tagged human Src (Upstate USA Inc, 706 Forest Street, Charlottesville, Va.). Serial dilutions of compound were assayed in a final reaction volume of 25 μL by incubating a solution of the above Src kinase (5-10 mU), 8 mM MOPS (3-(N-morpholino)propanesulfonic acid) pH 7.0, 0.2 mM EDTA (ethylenediamine tetracetic acid), 250 μM amino acid sequence KVEKIGEGTYGVVYK (Upstate USA Inc, 706 Forest Street, Charlottesville, Va.), and 10 mM magnesium acetate and [γ-^33P-ATP] (specific activity of about 500 cpm/pmol, concentration as required). The reaction was initiated by the addition of the magnesium acetate and [γ-^33P-ATP] mixture. After incubation for 40 minutes at room temperature, the reaction was stopped by the addition of 5 μL of a 3% phosphoric acid solution. A 10 μL aliquote of the reaction was then spotted onto a P30 filtermat (PerkinElmer, Wellesley, Mass.) and washed three times for five minutes in 75 mM phosphoric acid and once in methanol prior to drying and scintillation counting. Inhibition of Src activity was determined by comparison to assays that contained no inhibitor.

T3 sequence (P12931 whole entry): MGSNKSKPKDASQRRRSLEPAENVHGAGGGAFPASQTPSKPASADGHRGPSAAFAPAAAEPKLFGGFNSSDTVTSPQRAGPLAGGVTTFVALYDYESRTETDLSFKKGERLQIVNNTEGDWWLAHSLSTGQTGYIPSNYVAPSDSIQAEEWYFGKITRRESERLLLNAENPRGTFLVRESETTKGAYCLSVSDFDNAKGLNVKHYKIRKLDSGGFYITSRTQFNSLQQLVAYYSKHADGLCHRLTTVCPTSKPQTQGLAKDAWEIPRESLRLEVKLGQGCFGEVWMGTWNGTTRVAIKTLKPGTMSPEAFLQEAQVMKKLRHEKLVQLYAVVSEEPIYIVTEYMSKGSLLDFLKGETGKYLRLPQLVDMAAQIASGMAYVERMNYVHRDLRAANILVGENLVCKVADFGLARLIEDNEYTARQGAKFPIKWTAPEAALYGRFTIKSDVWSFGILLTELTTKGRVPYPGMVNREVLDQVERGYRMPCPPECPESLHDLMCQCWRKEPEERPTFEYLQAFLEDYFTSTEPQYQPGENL
T2 sequence (P35968 790-1356 limits assumed): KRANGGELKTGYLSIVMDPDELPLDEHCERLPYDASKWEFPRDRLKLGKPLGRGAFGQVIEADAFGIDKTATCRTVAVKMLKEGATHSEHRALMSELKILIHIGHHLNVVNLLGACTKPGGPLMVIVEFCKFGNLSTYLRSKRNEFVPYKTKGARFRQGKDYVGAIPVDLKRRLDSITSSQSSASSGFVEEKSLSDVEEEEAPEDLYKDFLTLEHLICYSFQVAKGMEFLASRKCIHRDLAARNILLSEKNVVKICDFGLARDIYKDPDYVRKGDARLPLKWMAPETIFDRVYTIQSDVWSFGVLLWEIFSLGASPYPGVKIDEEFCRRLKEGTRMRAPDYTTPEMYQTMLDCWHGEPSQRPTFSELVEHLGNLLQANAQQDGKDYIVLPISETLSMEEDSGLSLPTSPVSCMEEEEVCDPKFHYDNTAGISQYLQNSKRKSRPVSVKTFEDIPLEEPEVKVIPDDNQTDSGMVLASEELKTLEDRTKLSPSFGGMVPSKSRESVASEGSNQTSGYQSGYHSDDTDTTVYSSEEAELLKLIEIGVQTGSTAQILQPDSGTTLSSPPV

Row | IC50 [1] [nM] | IC50 [2] [nM] | IC50 [3] [nM] | Structure (SMILES)
1 | ≤ 100 | ≤ 100 | ≤ 100 | Cc1cc(Nc2cc(N3CCN(c4ccncc4)CC3)nc(/C=C/c3ccccc3)n2)n[nH]1 [Compound 22, (E)-N-(5-methyl-1H-pyrazol-3-yl)-6-(4-(pyridin-4-yl)piperazin-1-yl)-2-styrylpyrimidin-4-amine]
2 | ≤ 100 | ≤ 100 | ≤ 100 | Cc1cc(Nc2cc(N3CCC(N4CCCCC4)CC3)nc(/C=C/c3ccccc3)n2)n[nH]1 [Compound 5, (E)-6-(1,4′-bipiperidin-1′-yl)-N-(5-methyl-1H-pyrazol-3-yl)-2-styrylpyrimidin-4-amine]
